The values that follow come from patent US10995067B2, “Treatment of Fabry disease” (Academia Sinica, priority 2016, dated 2021).

Data set [1] concerns the target T1, β-galactosidase from human lysate (lysed human lymphocytes) (Homo sapiens, UniProt P16278).
T1 construct: endogenous in cells; host or cells: normal human lymphocytes (lysate, 62 μg/ml)
T1 sequence (P16278 29-677): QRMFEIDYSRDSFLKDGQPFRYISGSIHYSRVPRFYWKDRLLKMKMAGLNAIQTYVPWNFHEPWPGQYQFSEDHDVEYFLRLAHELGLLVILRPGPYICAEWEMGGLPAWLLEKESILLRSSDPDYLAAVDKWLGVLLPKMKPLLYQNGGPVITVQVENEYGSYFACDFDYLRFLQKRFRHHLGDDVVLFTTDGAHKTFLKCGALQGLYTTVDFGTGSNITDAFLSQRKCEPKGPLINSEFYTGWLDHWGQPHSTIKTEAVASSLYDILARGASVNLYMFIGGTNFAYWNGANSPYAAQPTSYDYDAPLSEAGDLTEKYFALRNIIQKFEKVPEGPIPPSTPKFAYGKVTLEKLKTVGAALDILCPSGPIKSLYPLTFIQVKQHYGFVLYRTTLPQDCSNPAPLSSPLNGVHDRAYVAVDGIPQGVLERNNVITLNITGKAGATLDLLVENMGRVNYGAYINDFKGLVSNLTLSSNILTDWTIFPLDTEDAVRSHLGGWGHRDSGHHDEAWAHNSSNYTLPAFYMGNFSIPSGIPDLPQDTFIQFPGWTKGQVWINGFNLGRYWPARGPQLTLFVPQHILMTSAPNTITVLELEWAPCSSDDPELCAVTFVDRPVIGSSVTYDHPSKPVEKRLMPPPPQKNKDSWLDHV
As to the kind of experiment: Glycosidase activity assay: β-galactosidase. It counts as biochemical. The settings on record: inhibitors tested at 100 μM.

In data set [2] the target is T2, α-galactosidase from coffee beans (Coffea arabica, UniProt Q42656).
T2 construct: purchased
T2 sequence (Q42656 16-378): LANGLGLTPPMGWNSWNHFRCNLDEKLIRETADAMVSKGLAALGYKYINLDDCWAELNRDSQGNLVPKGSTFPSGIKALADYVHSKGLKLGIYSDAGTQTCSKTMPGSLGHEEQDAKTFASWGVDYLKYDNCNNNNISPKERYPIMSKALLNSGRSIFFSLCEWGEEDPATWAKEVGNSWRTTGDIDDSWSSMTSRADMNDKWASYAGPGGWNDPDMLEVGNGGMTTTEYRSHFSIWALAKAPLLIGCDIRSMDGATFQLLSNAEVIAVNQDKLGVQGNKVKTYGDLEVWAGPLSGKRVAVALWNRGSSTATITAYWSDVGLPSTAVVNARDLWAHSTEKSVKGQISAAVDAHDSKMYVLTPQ
As to the kind of experiment: Glycosidase activity assay: α-galactosidase (coffee beans). The format is biochemical. The settings on record: inhibitors tested at 100 μM.

Data set [3] has as its target T3, α-mannosidase from Jack beans (Canavalia ensiformis, UniProt C0HJB3).
T3 construct: purchased
T3 sequence (C0HJB3 1-981): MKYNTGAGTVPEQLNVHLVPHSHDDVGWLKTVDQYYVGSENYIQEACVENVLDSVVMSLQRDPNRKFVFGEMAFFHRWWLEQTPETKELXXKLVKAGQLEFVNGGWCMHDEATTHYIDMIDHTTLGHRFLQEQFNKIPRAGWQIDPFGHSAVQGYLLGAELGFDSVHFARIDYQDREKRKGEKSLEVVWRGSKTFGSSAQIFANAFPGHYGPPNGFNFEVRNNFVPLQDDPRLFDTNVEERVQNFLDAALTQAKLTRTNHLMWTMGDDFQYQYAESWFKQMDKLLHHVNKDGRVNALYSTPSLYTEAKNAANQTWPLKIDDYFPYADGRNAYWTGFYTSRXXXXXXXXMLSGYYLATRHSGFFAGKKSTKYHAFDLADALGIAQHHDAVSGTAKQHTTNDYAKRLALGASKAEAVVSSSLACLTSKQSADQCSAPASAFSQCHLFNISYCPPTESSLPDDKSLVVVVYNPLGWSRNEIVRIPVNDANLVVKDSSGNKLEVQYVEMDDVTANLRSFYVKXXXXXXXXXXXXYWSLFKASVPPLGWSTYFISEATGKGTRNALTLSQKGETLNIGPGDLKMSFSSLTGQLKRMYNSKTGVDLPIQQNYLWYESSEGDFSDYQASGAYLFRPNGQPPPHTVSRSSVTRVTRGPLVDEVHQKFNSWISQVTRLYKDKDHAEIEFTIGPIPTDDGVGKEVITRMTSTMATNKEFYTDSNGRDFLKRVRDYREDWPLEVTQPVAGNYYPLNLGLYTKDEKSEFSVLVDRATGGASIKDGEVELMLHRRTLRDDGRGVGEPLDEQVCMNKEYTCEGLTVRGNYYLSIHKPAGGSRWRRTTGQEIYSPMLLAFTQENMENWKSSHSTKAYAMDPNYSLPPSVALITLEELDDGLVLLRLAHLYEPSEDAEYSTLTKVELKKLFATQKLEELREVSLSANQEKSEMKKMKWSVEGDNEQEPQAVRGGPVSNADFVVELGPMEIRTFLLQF
As to the kind of experiment: Glycosidase activity assay: α-mannosidase. The format is biochemical. Particulars: inhibitors tested at 100 μM.

Data set [4] relates to Wild-type human lymphocytes (08C0058). As to the kind of experiment: Cytotoxicity assay using human lymphocytes (alamarBlue). The settings on record: concentration up to 200 μM; data not shown. It counts as cell-based. How it is done:
Wild-type human lymphocytes (08C0058) were seeded in 96-well plates at a number of 50,000 cells/well. […] All compounds were dissolved in DMSO or H2O and control experiments were performed with DMSO. Cells were incubated at 37° C. in 5% CO2 for 48-72 h. Then, 10λ alamarBlue was added to cells suspended in medium, and the mixture was incubated for additional 3-5 hrs at 37° C. in 5% CO2.

The target in data set [5] is T4, rh-α-Gal A (recombinant human α-galactosidase A) (Homo sapiens, UniProt P06280).
T4 sequence (P06280 32-429): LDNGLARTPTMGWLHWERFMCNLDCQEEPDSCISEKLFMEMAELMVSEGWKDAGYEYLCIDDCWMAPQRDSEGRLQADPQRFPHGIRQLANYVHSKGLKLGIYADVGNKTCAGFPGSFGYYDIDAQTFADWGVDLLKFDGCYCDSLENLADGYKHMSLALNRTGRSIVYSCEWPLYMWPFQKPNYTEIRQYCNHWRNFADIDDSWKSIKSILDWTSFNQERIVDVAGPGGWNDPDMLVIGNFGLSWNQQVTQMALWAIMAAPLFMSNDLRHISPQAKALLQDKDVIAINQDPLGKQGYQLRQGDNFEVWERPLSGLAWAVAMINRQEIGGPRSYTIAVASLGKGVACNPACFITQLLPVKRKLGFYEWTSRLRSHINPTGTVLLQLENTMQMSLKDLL
As to the kind of experiment: biochemical. Particulars: read-out: Inhibition activity (%) rh-α-Gal A.
Description: Libraries (20 μL) were diluted to give the final concentration of 20 μM, mixed with substrate 4-methylberiilyl α-D-galactopyranoside (20 μL) and recombinant human alpha-galactosidase (10 μL) in pH 4.6 buffer (50 μL), then assay was carried out at 37° C. for 15 min. […] The control group was a mixture of HBTU, DIEA, acid libraries (in total 20 μL), substrate (20 μL), buffer (50 μL) and enzyme (10 μL) excluded the amide products. Blank was a solution of substrate (20 μL) and enzyme (10 μL) in pH 4.6 buffer (70 μL). Inhibition was performed as relative enzyme activity to control.

On to `O=C(CCCCC1CCCCC1)NC[C@H]1N[C@H](CO)[C@H](O)[C@@H]1O` [Compound 33], for which, in data set [1], the “Inhibition activity (%) β-galactosidase” value is on record as “No inhibition”. For the same compound, the inhibition at 100 µM came to 94% in data set [2], 36% in data set [3] and 97% in data set [5]. Besides, the “toxic effect in cell culture” value in data set [4] is reported as “no toxic effect”.
